Results from ChEMBL document CHEMBL1201862, “PubChem BioAssay data set” (2004).
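48-hour exposure; five concentrations; linearly interpolated endpoints. GI50 = concentration required for 50% inhibition of growth.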 Active and inactive are the calls of the source. Rule as the data show it: active = GI50 up to about 1.1 µM and inactive = higher.

Columns and labels:
Experiment in all cases: NCI-60 cell line screen, 48 h
A549 = system: A549
DU-145 = system: DU-145
HCC 2998 = system: HCC 2998
HCT-15 = system: HCT-15
KM12 = system: KM12
MDA-MB-231 = system: MDA-MB-231
Malme-3M = system: Malme-3M
OVCAR-4 = system: OVCAR-4
OVCAR-5 = system: OVCAR-5
RXF 393 = system: RXF 393
SF-268 = system: SF-268
SK-MEL-28 = system: SK-MEL-28
SK-MEL-2 = system: SK-MEL-2
SN12C = system: SN12C
U-251 = system: U-251
CAKI-1 = system: CAKI-1
HL-60 = system: HL-60
SK-OV-3 = system: SK-OV-3
SF-539 = system: SF-539

| SMILES | GI50 (A549) | GI50 (DU-145) | GI50 (HCC 2998) | GI50 (HCT-15) [µM] | GI50 (KM12) | GI50 (MDA-MB-231) | GI50 (Malme-3M) | GI50 (OVCAR-4) | GI50 (OVCAR-5) | GI50 (RXF 393) | GI50 (SF-268) | GI50 (SK-MEL-28) | GI50 (SK-MEL-2) | GI50 (SN12C) | GI50 (U-251) | GI50 (CAKI-1) | GI50 (HL-60) | GI50 (SK-OV-3) | GI50 (SF-539) |
| --- | --- | --- | --- | --- | --- | --- | --- | --- | --- | --- | --- | --- | --- | --- | --- | --- | --- | --- | --- |
| CCOC(=O)c1nnsc1NC(=O)Nc1ccc(Cl)cc1 | 43 µM (inactive) | 56.5 µM (inactive) | 38.5 µM (inactive) | 61.9 | 51.6 µM (inactive) | 20.7 µM (inactive) | 75.5 µM (inactive) | 21.1 µM (inactive) | > 100 µM (inactive) | > 100 µM (inactive) | 57.5 µM (inactive) | > 100 µM (inactive) | > 100 µM (inactive) | 35.2 µM (inactive) | > 100 µM (inactive) | – | – | – | – |
| COCc1nc2c(OC)c(-c3nc4ccc(N5CCN(C)CC5)nc4[nH]3)cc(OC)c2[nH]1 | 46 µM (inactive) | 29.2 µM (inactive) | 99.3 µM (inactive) | 38.1 | 27.4 µM (inactive) | 45.8 µM (inactive) | 20.7 µM (inactive) | 46.1 µM (inactive) | 40.4 µM (inactive) | 27.2 µM (inactive) | 77.4 µM (inactive) | 28 µM (inactive) | – | 51.5 µM (inactive) | 39.7 µM (inactive) | > 100 µM (inactive) | 30.7 µM (inactive) | 45.3 µM (inactive) | – |
| COc1ccc(Nc2nc3ccccc3nc2-c2cccs2)cc1OC | > 10 µM (inactive) | > 10 µM (inactive) | > 10 µM (inactive) | > 10 | > 10 µM (inactive) | > 10 µM (inactive) | – | > 10 µM (inactive) | > 10 µM (inactive) | > 10 µM (inactive) | > 10 µM (inactive) | > 10 µM (inactive) | > 10 µM (inactive) | > 10 µM (inactive) | > 10 µM (inactive) | > 10 µM (inactive) | > 10 µM (inactive) | > 10 µM (inactive) | > 10 µM (inactive) |
| CC1CCc2sc3nc(S)n(-c4ccccc4)c(=O)c3c2C1 (stereo not drawn) | 81.8 µM (inactive) | 63.4 µM (inactive) | 21.6 µM (inactive) | > 100 | 75.2 µM (inactive) | 53.8 µM (inactive) | 66.8 µM (inactive) | 39.7 µM (inactive) | 86.9 µM (inactive) | 35.8 µM (inactive) | 85.7 µM (inactive) | 93.1 µM (inactive) | 27.7 µM (inactive) | > 100 µM (inactive) | 49.2 µM (inactive) | > 100 µM (inactive) | – | 55.1 µM (inactive) | – |
| COc1ccc(-c2cc(-c3ccc(C)cc3)n(C3OC(COC(C)=O)C(OC(C)=O)C(OC(C)=O)C3OC(C)=O)c(=S)c2C#N)cc1 (stereo not drawn) | > 100 µM (inactive) | > 100 µM (inactive) | > 100 µM (inactive) | > 100 | > 100 µM (inactive) | > 100 µM (inactive) | > 100 µM (inactive) | 29.2 µM (inactive) | > 100 µM (inactive) | 79.4 µM (inactive) | > 100 µM (inactive) | > 100 µM (inactive) | – | > 100 µM (inactive) | 50.1 µM (inactive) | > 100 µM (inactive) | 49.3 µM (inactive) | > 100 µM (inactive) | 57.5 µM (inactive) |
| CC(C)OC1OC(CO)C(O)CC1n1cc(F)c(=O)[nH]c1=O (stereo not drawn) | > 100 µM (inactive) | > 100 µM (inactive) | > 100 µM (inactive) | > 100 | > 100 µM (inactive) | > 100 µM (inactive) | 86.1 µM (inactive) | > 100 µM (inactive) | > 100 µM (inactive) | 47.5 µM (inactive) | 59.3 µM (inactive) | > 100 µM (inactive) | > 100 µM (inactive) | > 100 µM (inactive) | 66.8 µM (inactive) | 24.6 µM (inactive) | – | – | > 100 µM (inactive) |
| Nc1nc(O)nc2c1ncn2C1OC(CO)C(O)C1O (stereo not drawn) | > 100 µM (inactive) | 23.5 µM (inactive) | 25.7 µM (inactive) | 28.4 | > 100 µM (inactive) | 38 µM (inactive) | > 100 µM (inactive) | 37 µM (inactive) | > 100 µM (inactive) | 72.3 µM (inactive) | > 100 µM (inactive) | > 100 µM (inactive) | 64.4 µM (inactive) | 33.1 µM (inactive) | > 100 µM (inactive) | 54 µM (inactive) | 22 µM (inactive) | 40.2 µM (inactive) | – |
| O=C1CC(=O)c2c(Cl)sc(Cl)c21 | 87.1 µM (inactive) | > 100 µM (inactive) | – | 64.4 | > 100 µM (inactive) | > 100 µM (inactive) | 21.6 µM (inactive) | 29.2 µM (inactive) | > 100 µM (inactive) | 16.1 µM (inactive) | 64.7 µM (inactive) | 53.8 µM (inactive) | > 100 µM (inactive) | > 100 µM (inactive) | > 100 µM (inactive) | > 100 µM (inactive) | 30.3 µM (inactive) | > 100 µM (inactive) | > 100 µM (inactive) |
| CNC(=S)N/N=C(C)\C(=N/NC(=S)NC)c1ccccc1 | 29.2 µM (inactive) | > 100 µM (inactive) | > 100 µM (inactive) | 53.1 | 64.9 µM (inactive) | > 100 µM (inactive) | 76.7 µM (inactive) | – | > 100 µM (inactive) | 56.8 µM (inactive) | 74.8 µM (inactive) | – | – | – | – | 96.6 µM (inactive) | – | > 100 µM (inactive) | > 100 µM (inactive) |
| O=C1C=C(NCCc2ccc(O)cc2)C(=O)C=C1NCCc1ccc(O)cc1 | > 100 µM (inactive) | > 100 µM (inactive) | > 100 µM (inactive) | > 100 | > 100 µM (inactive) | 47.1 µM (inactive) | > 100 µM (inactive) | > 100 µM (inactive) | > 100 µM (inactive) | > 100 µM (inactive) | > 100 µM (inactive) | > 100 µM (inactive) | > 100 µM (inactive) | > 100 µM (inactive) | 32.2 µM (inactive) | > 100 µM (inactive) | 19.2 µM (inactive) | 54.3 µM (inactive) | – |
| CN1C(=O)C(O)CC1c1cccc(F)c1 (stereo not drawn) | > 100 µM (inactive) | > 100 µM (inactive) | > 100 µM (inactive) | > 100 | > 100 µM (inactive) | > 100 µM (inactive) | > 100 µM (inactive) | > 100 µM (inactive) | > 100 µM (inactive) | > 100 µM (inactive) | – | > 100 µM (inactive) | > 100 µM (inactive) | > 100 µM (inactive) | > 100 µM (inactive) | > 100 µM (inactive) | > 100 µM (inactive) | > 100 µM (inactive) | > 100 µM (inactive) |
| Nc1nc(N)c(NC(=O)CCCO)c(=O)[nH]1 | > 100 µM (inactive) | > 100 µM (inactive) | > 100 µM (inactive) | > 100 | > 100 µM (inactive) | > 100 µM (inactive) | > 100 µM (inactive) | > 100 µM (inactive) | > 100 µM (inactive) | > 100 µM (inactive) | > 100 µM (inactive) | – | > 100 µM (inactive) | > 100 µM (inactive) | > 100 µM (inactive) | > 100 µM (inactive) | – | > 100 µM (inactive) | > 100 µM (inactive) |
| Cn1c(=O)c2c(O)cc(N)nc2n(C)c1=O | > 100 µM (inactive) | > 100 µM (inactive) | > 100 µM (inactive) | – | > 100 µM (inactive) | > 100 µM (inactive) | > 100 µM (inactive) | > 100 µM (inactive) | > 100 µM (inactive) | > 100 µM (inactive) | > 100 µM (inactive) | > 100 µM (inactive) | > 100 µM (inactive) | > 100 µM (inactive) | > 100 µM (inactive) | 28.9 µM (inactive) | > 100 µM (inactive) | > 100 µM (inactive) | > 100 µM (inactive) |
| Cc1cc(OCc2nnc3n2N=C(c2cc(F)c(Cl)cc2Cl)/C(=C/c2ccc(-c4ccc(Cl)cc4)o2)S3)ccc1Cl | > 50 µM (inactive) | > 50 µM (inactive) | 19 µM (inactive) | 34 | 41.5 µM (inactive) | 12.9 µM (inactive) | 3.9 µM (inactive) | – | > 50 µM (inactive) | > 50 µM (inactive) | > 50 µM (inactive) | 24.5 µM (inactive) | > 50 µM (inactive) | 31.3 µM (inactive) | > 50 µM (inactive) | 39.5 µM (inactive) | > 50 µM (inactive) | – | – |
| C[N+](C)(C)c1ccc(C(N)C(=O)O)cc1 (stereo not drawn) | – | > 100 µM (inactive) | > 100 µM (inactive) | > 100 | > 100 µM (inactive) | > 100 µM (inactive) | > 100 µM (inactive) | > 100 µM (inactive) | > 100 µM (inactive) | > 100 µM (inactive) | > 100 µM (inactive) | > 100 µM (inactive) | > 100 µM (inactive) | > 100 µM (inactive) | > 100 µM (inactive) | > 100 µM (inactive) | 43.7 µM (inactive) | > 100 µM (inactive) | – |
| COC(=O)c1cc(NC(=O)c2cc(NC(=O)c3cc([N+](=O)[O-])cn3C)cn2C)cn1C | > 100 µM (inactive) | > 100 µM (inactive) | – | 82 | 64.1 µM (inactive) | 35.6 µM (inactive) | 26.9 µM (inactive) | 40 µM (inactive) | 81.1 µM (inactive) | > 100 µM (inactive) | > 100 µM (inactive) | > 100 µM (inactive) | 80.2 µM (inactive) | > 100 µM (inactive) | 36.8 µM (inactive) | 69.2 µM (inactive) | 86.5 µM (inactive) | 49.4 µM (inactive) | > 100 µM (inactive) |
